Several values for one entry are separate records, joined by “and”; a condition that tells them apart may be missing. Equal values may be shown once.
How the values were obtained:
Assay type in all cases: biochemical
[1] = test system: human sdLDL; assay: Glucose-induced sdLDL oxidation, MDA/TBARS (Example 10); settings: glucose 200 mg/dL
Method: Vitamin E (α-tocopherol) purchased from Sigma-Aldrich was prepared in ethanol at 1.0 mM (ε=3.06×10^4M^−1 cm^−1 at 294 nm) prior to experimental use. Test compounds were further diluted in ethanol or aqueous buffer as needed. Phosphate Buffered Saline (PBS) purchased from Sigma-Aldrich was prepared in double distilled water at 10 mM (138 mM NaCl, 2.7 mM KCl, pH 7.4). Glucose prepared in PBS was added to test samples to achieve a final concentration of 11.0 mM (200 mg/dL).
LDL and sdLDL were isolated from the plasma of healthy volunteers by iodixanol density gradient ultracentrifugation and adjusted to a final apolipoprotein concentration of 10 mg/mL. […] Sample aliquots were incubated at 100° C. for 30 minutes and then assayed for the formation of thiobarbituric acid-reactive substances (TBARS), having a molar absorptivity (ε) value of 1.56×10^5 M^−1 cm^−1 at 532 nm and were derived principally from the reaction of thiobarbituric acid with malondialdehyde (MDA). Lipid oxidation was measured by the colorimetric detection of malondialdehyde (MDA), a marker of oxidative stress.

[2] = test system: human LDL; assay: Copper-induced oxidation of unfractionated LDL, TBARS (Example 7); settings: 1 hour
Method: An experiment to study the antioxidant effect of EPA in LDL and small dense LDL (“sdLDL”) was performed. LDL and sdLDL were isolated from the plasma of healthy volunteers by iodixanol density gradient ultracentrifugation, and adjusted to a final apolipoprotein concentration of 2 mg/mL. […] Vitamin E was also incubated with sample aliquots as a positive control.

[3] = Glucose-induced membrane lipid peroxidation (LOOH, CHOD-iodide assay) in DLPC/cholesterol vesicles (Examples 4, 5); settings: for inhibition of the peroxidative effects of glucose (LOOH formation) / effect on LOOH formation / lipid peroxidation: 1:30 drug-to-phospholipid mole ratio; for effect on LOOH formation / lipid peroxidation: 72- and 96-hour time points
Method: All test compounds were further diluted in ethanol or aqueous buffer as needed. Glucose was prepared in saline buffer (0.5 mM HEPES, 154 mM NaCl, pH 7.3) at 11.0 mM (200 mg/dL). CHOD-iodide color reagent (stock) was prepared, with slight modification, as described by from El-Saadani et al. (J. […] Samples were shell-dried under nitrogen gas and placed under vacuum for 1 h to remove residual solvent. […] Lipid suspensions were then vortexed for 3 min at ambient temperature to form MLVs. All MLV samples were subjected to time-dependent autoxidation by incubating at 37° C. in an uncovered, shaking water bath. This method allows lipid peroxidation to occur gradually without requiring the use of exogenous initiators. Small aliquots (5-100 μL) of each sample were removed, immediately following MLV preparation (0 hour) and after exposing samples to oxidative conditions for 72 or 96 hour, and combined with 1.0 mL of activated CHOD-iodide color reagent. Aliquot volume was reduced with each successive time point to ensure that spectrophotometric readings were within the optimal adsorption range. Test samples were covered and incubated in darkness at room temperature for at least 4 hr. Sample absorbances were then measured against a CHOD blank at 365 nm using a Beckman DU-640 spectrophotometer. The CHOD colorimetric assay is based on the oxidation of iodide (I^−) by lipid hydroperoxide (LOOH) to form triiodide the quantity of which is directly proportional to the amount of LOOH present in the lipid sample. The molar absorptivity (ε) of I3^− is 2.46×10^4 M^−1 cm^−1 at 365 nm. […] All MLV samples were subjected to time-dependent autoxidation by incubating at 37° C. in an uncovered, shaking water bath. This method allows lipid peroxidation to occur gradually without requiring the use of exogenous initiators. Small aliquots (5-100 μL) of each sample were removed, immediately following MLV preparation (0 hr) and after exposing samples to oxidative conditions for 72 or 96 hr, and combined with 1.0 mL of activated CHOD-iodide color reagent. Aliquot volume was reduced with each successive time point to ensure that spectrophotometric readings were within the optimal adsorption range. Test samples were covered and incubated in darkness at room temperature for at least 4 hr. Sample absorbances were then measured against a CHOD blank at 365 nm using a Beckman DU-640 spectrophotometer. […] The molar absorptivity (ε) of I3^− is 2.46×10^4 M^−1 cm^−1 at 365 nm.

[4] = test system: human sdLDL; assay: Copper-induced sdLDL oxidation, TBARS (Example 7)
Method: An experiment to study the antioxidant effect of EPA in LDL and small dense LDL (“sdLDL”) was performed. LDL and sdLDL were isolated from the plasma of healthy volunteers by iodixanol density gradient ultracentrifugation, and adjusted to a final apolipoprotein concentration of 2 mg/mL. […] Lipid oxidation was initiated with 10 μM CuSO4 and monitored by the colorimetric detection of thiobarbituric acid reactive substances (TBARS) for 1 hr. Vitamin E was also incubated with sample aliquots as a positive control.

Row | Compound | inhibition of sdLDL oxidation compared to vehicle controls ([1]; 10.0 μM) [%] | sdLDL oxidation (formation of MDA) ([1]; 10.0 μM) [µM] | IC50 [1] [nM] | inhibition of TBARS formation compared to vehicle-treated control ([2]; highest treatment concentration (10)) [%] | antioxidant effect (LOOH formation) ([3]; 1.0 μM, glucose 200 mg/dL, 96 hours) | inhibition of the peroxidative effects of glucose (LOOH formation) ([3]; glucose 200 mg/dL, 72 hours) [%] | inhibition of the peroxidative effects of glucose (LOOH formation) ([3]; glucose 200 mg/dL, 96 hours) [%] | effect on LOOH formation / lipid peroxidation ([3]; glucose) | effect on membrane LOOH formation ([3]; EPA at 1.0 and 5.0 μM, glucose) | LOOH formation compared to vehicle, glucose only, glucose and EA, glucose and ETE ([3]; Example 5, model membranes treated with glucose) | inhibition of sdLDL oxidation ([4]; 1.0 μM, 1 hr, vs vehicle) [%] | inhibition of TBARS formation / sdLDL oxidation ([4]; 10 μM, 1 hr, vs vehicle, 10 µM) | effect on sdLDL oxidation compared to vehicle or DHA ([4]; 10.0 μM, after 4 hours) | IC50 ([4]; 1 hr) [nM] | effect on glucose-induced sdLDL oxidation ([1]; 10 μM, 1 hr) | increase of sdLDL oxidation compared to glucose-treated controls ([1]; 10 μM, 1 hr) [%] | effect on unfractionated LDL oxidation ([2]; 10 μM) | effect on sdLDL oxidation compared to vehicle-treated controls ([4]; 10 μM, 1 hour)
1 | CC/C=C\C/C=C\C/C=C\C/C=C\C/C=C\CCCC(=O)O [EPA, cis-5,8,11,14,17-eicosapentaenoic acid] | 94 | 0.2 ± 0.1 | < 1000 | > 90 | separate and potent antioxidant effects | 88 | 86 | significantly inhibited LOOH formation | inhibit membrane LOOH formation in a dose-dependent manner | significantly less LOOH formation | 19±8 | 93±2% and 92±8% | significantly inhibited sdLDL oxidation | ~2000 | – | – | – | –
2 | Cc1c(C)c2c(c(C)c1O)CC[C@@](C)(CCC[C@H](C)CCC[C@H](C)CCCC(C)C)O2 [vitamin E, α-tocopherol, reference compound] | – | – | – | – | – | – | – | no significant effect on lipid peroxidation | – | – | – | – | – | – | failed to inhibit sdLDL oxidation | 63 | no significant effect on unfractionated LDL oxidation | no significant effect on sdLDL oxidation

— patent US20190209506A1, “METHODS OF REDUCING OR PREVENTING OXIDATION OF LDL OR LIPID MEMBRANES IN A SUBJECT IN NEED THEREOF” (Amarin Pharmaceuticals Ireland Limited, priority 2018, published 2019)
